From patent US10028999B2, “PAR-1 based therapeutic conjugates and uses thereof” (TEL HASHOMER MEDICAL RESEARCH INFRASTRUCTURE AND SERVICES …, priority 2014, dated 2018)
pIC50: −log10 of the molar value. Peptide text beside a SMILES is read from it. * marks the point of attachment. Tos = Cc1ccc(S(=O)(=O)*)cc1; CH2Cl = ClC*

Key:
[1] = tested on: STZ-induced diabetic rats; test: Electrophysiological tests in STZ-induced diabetic rats treated with thrombin inhibitors; format: in vivo, rat; conditions: STZ rats
Description: (§1) Electrophysiological tests of the sciatic nerves were performed on day 32 PI (post-immunization/induction) in EAN model (FIGS. 3A-C) and 8 weeks after STZ induction (FIG. 4A-C). Rats were anesthetized with Phenobarbital (IP, 24 mg/kg). Two pairs of monopolar needle electrodes were used to stimulate the tail nerves. Stimulating cathodes were inserted to a depth of 4-5 mm at the base of the tail and 4 cm distally. An anode at each location was inserted into the skin (4-5 mm depth) 1 cm proximal to the cathode. A ground electrode was placed between the distal stimulating electrode and the active recording electrode. Electromyography (EMG) recordings of responses of the tail muscles to proximal and distal stimuli, made by a pair of ring electrodes coated with electrode jelly and placed 1 cm distally to the distal stimulating electrode, were collected. The tail skin was wiped with alcohol prior to placing the electrodes. […] Both proximal and distal latencies were measured using time intervals from the stimulus artifact to the first deflection from baseline. To calculate the motor nerve conduction velocity (MNCV), the distance between stimulating cathodes was divided by the latency difference. Amplitudes of the compound muscle action potential (CMAP) from both proximal and distal stimulations were measured from the negative to the positive peaks. The reduction of the proximal CMAP compared with that of the distal CMAP was calculated by the equation: [(distal CMAP-proximal CMAP)/distalCMAP×100] and was defined as the R ratio. Temperature differences were minimized by conducting the study as soon as the anesthesia had taken effect and by warming the tail with a heating lamp.
(§2) FIGS. 3 and 4 each include 3 graphs summarizing the results from electrophysiological tests of treated rats, as follows: distal latency (3A, 4A) referring to the time, in milliseconds, between distal stimulation to recording; conduction velocity (3B, 4B) referring to the distance over time, in meters/seconds; and amplitude (3C, 4C) referring to the size of the response as measured in millivolts.

[2] = tested on: EAN rats (experimental autoimmune neuritis); test: Electrophysiological tests in EAN rats treated with thrombin inhibitors; format: in vivo, rat
Description: as §1, §2

C6 glioma cells [3] = test: Thrombin-like activity in C6 glioma cell line; format: cell-based; conditions: four hours after treatment
CNS-1 glioma cells [4] = test: Proliferation (XTT) of CNS-1 glioma cells; format: cell-based, rat; conditions: CNS-1 cells; for inhibition of cell proliferation: XTT, 48 hours
Description: (§3) Several peptide moieties (Table 1) according to the present invention were synthesized. Proliferation was measured, by means of XTT, in C6 and CNS-1 glioma cell-lines (FIGS. 8A and 8B, respectively). In C6 cells, proliferation was measured before (black bar) and after cells were treated with the PAR-1 antagonist SCH79797 at various doses ranging from 10 nM to 10 μM (grey bars; FIG. 8A).
In another set of experiments, CNS-1 glioma cell-line was treated with increased doses of TLCK (125 nM to 14 mM), for 48 hours (FIG. 9; grey bars). Proliferation was measured by means of XTT in comparison to non-treated cells (control; black bar).
Initially, CNS-1 glioma cells were treated with increased concentrations of two peptide conjugates: a short conjugate of the formula tosyl-DPR-CK (comprising 3 amino acids, 3AA) or a long conjugate of the formula tosyl-NATLDPR-CK (comprising 7 amino acids, 7AA; SEQ ID NO: 4) in concentrations of 100 pM, 1 nM and 10 nM, for 48 hours (FIG. 10). FIG. 10 provides the results of an XTT assay used for assessing cell proliferation.
The effect of the peptide conjugate alone, or in combination with PAR-1 antagonist, SCH79797, on cell proliferation was determined in comparison to untreated cells or cells treated with PAR-1 antagonist (FIG. 13).

in vivo = conditions: ip, 2 micromolar, in 100 ul
Description: The concentrations of the peptide conjugates in the plasma of animals treated therewith was evaluated by a unique method that was based on the ability of the peptide conjugates to inhibit thrombin activity. […] The essay initiated by obtaining blood samples from animals which received the peptide conjugates (100 microliter containing 2 micromolar, i.p.). The blood samples, after being maintained in citrate buffered sample tubes, were subjected to centrifugation for plasma separation. Samples were then filtered through a membrane with a 10 kD molecular weight cutoff which excluded all blood coagulation factors (by addition of calcium to neutralize the anticoagulation effect of the citrate buffer). Coagulation factor-free plasma samples were then applied to the thrombin activity assay.
The resulting thrombin activities in each plasma sample either diluted (×10) or as is were given in arbitrary units (FIGS. 18-18D, diagonal shading and dotted bars, respectively). However, the actual concentration were deduced by comparing the activities to calibrated activities generated with known concentrations of the conjugate peptides. The calibration data included the following thrombin activities: activity in a sample of thrombin in the absence of plasma and conjugates (black bars, FIGS. 18A-18D); and activity in four samples of thrombin and known concentrations of the peptide conjugates (10 nM, 100 nM, 1 micromolar and 10 micromolar; bars 2nd to 5th from right in FIGS. 18A-18D).

Protein C = Protein C (Homo sapiens, UniProt P04070); test: Protein C activity test; format: biochemical; conditions: for aPC: without conjugate 109; for Potency score in Protein C activity test: most potent (1) to least potent (5)
Sequence of Protein C (P04070 212-461 limits assumed): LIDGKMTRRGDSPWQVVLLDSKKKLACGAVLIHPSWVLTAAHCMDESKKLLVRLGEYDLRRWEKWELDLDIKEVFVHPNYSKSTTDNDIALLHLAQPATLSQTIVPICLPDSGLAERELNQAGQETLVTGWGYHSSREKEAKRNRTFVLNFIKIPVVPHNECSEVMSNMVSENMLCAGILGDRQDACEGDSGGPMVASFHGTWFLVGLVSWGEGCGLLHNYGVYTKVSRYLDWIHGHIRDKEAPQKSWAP
Sequence of Protein C (P04070 43-197 partner limits assumed): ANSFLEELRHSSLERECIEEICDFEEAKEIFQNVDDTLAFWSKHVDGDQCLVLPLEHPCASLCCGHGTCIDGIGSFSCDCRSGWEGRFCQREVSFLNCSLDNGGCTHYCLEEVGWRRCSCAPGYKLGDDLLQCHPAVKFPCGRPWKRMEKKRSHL

CNS-1 glioma cells [5] = tested on: CNS-1 glioma cells
Description: The thrombin-like activity of CNS-1 cells was initially measured in control cells and in cells treated with (i) the short peptide conjugate (tosyl-DPR-CK, corresponding to a conjugate that includes the peptide termed 3AA) or (ii) the long conjugate (tosyl-NATLDPR-CK, corresponding to a conjugate that includes the peptide termed 7AA (SEQ ID No. 4)) at high ([…]) and low (100 nM) concentrations (FIG. 16).

thrombin = test: Thrombin time test; format: biochemical; conditions: for TT: without conjugate 13.4; for Potency score in TT test: most potent (1) to least potent (5)
[6] = tested on: blood coagulation (prothrombin time); test: Prothrombin time test; format: biochemical; conditions: for PT: without conjugate 11.5; for Potency score in PT test: most potent (1) to least potent (5)
blood coagulation (aPTT) = test: Activated partial thromboplastin time test; format: biochemical; conditions: for aPTT: without conjugate 30.5; for Potency score in aPTT test: most potent (1) to least potent (5)
Factor Xa = Factor Xa activity test; format: biochemical; conditions: for Fxa: without conjugate 0.11; for Potency score in Factor Xa activity test: most potent (1) to least potent (5)
[7] = tested on: STZ-induced diabetic BALB/c mice; test: Sciatic nerve conduction velocity in STZ diabetic neuropathy mice; format: in vivo; conditions: daily 100 microliter of 10 nM, p=0.016, listed as T5AACK
Description: The conduction velocity of sciatic nerves derived from an animal model of diabetes (streptozotocine (STZ)-induced diabetes; FIG. 20) was measured in mice treated daily with sham (STZ), or with the active drug TLDPR (peptide 5AA; SEQ ID NO: 2) nested between N alpha-tosyl and chloromethyl ketone, namely […] (termed hereinafter T5AACK) injected in 100 microliter of 10 nM, 100 nM and 1 micromolar.
Conduction velocities in the sciatic nerves of the mice were assessed by standard electrophysiology nerve conduction methods by a blind assessor. The nerve conduction studies were carried out one month after the induction of diabetes. A group of normal mice without diabetes served as controls. All STZ treated mice developed severe diabetes.
Streptozotocyn (STZ) was dissolved in citrate buffer pH 4.5 and a single dose of STZ was administered IP (140 mg/kg) to 12 weeks BALB/c mice. […] Mice developed diabetic neuropathy developed within 4 weeks after the induction of diabetes. […]
Conduction velocities in the sciatic nerves of the mice were assessed by standard electrophysiology nerve conduction methods by a blind assessor (FIG. 19).

C6 glioma cells [8] = test: Proliferation (XTT) of C6 glioma cells; format: cell-based; conditions: 10 nM to 10 μM
Description: as §3

| level at time molar (in vivo) | aPC (Protein C; 1 μM) | Potency score in Protein C activity test (Protein C; 100 μM) | aPC (Protein C; 100 μM) | pIC50 (CNS-1 glioma cells [5]) | TT (thrombin; 10 nM) | Potency score in TT test (thrombin; 1 μM) | TT (thrombin; 1 μM) | TT (thrombin; 100 μM) | PT ([6]; 10 nM) | PT ([6]; 1 μM) | Potency score in PT test ([6]; 100 μM) | PT ([6]; 100 μM) | aPTT (blood coagulation (aPTT); 10 nM) | aPTT (blood coagulation (aPTT); 1 μM) | Potency score in aPTT test (blood coagulation (aPTT); 100 μM) | aPTT (blood coagulation (aPTT); 100 μM) | SMILES | Potency score in Factor Xa activity test (Factor Xa; 100 μM) | Fxa (Factor Xa; 100 μM) | further results |
| --- | --- | --- | --- | --- | --- | --- | --- | --- | --- | --- | --- | --- | --- | --- | --- | --- | --- | --- | --- | --- |
|  |  |  |  |  |  |  |  |  |  |  |  |  |  |  |  |  | N=C(N)c1ccc(CC(NC(=O)CNS(=O)(=O)c2ccc3ccccc3c2)C(=O)N2CCCCC2)cc1 (racemic) [NAPAP, Na-(2-naphthyl-sulphonyl-glycyl)-DL-p-amidinophenylalanyl-piperidine] |  |  | conduction velocity ([1]; daily treatment for 2 weeks, TLCK 4.4 mg/kg, NAPAP 120 μM/kg, untreated STZ 28.5±2.8): 40.1±2.7 m/sec; proximal amplitude ([1]; untreated STZ 0.48±0.13, insignificant): 1.68±0.64 millivolts; latency ([1]; untreated STZ 1.93±0.139, control 1.29±0.057): 1.676 ± 0.132 ms; conduction velocity ([2]; daily treatment for 2 weeks, TLCK 4.4 mg/kg, NAPAP 120 μM/kg, untreated EAN 23.6±1.2): 36.05±3.57 m/sec; proximal amplitude ([2]; untreated EAN 0.76±0.33, non-significant): 0.83±0.4 millivolts; latency ([2]; untreated EAN 1.43±0.023, control 0.54±0.03): 1.32 ± 0.33 ms; thrombin-like activity (C6 glioma cells [3]): inhibited |
| ~1000 nM | 107 | 1 | FAILED | 11.15 | 14.1 s | 1 | > 80 s | > 80 s | 11.5 s | 12.3 s | 1 | FAILED | 30 s | 38.1 s | 1 | 150 s | Cc1ccc(S(=O)(=O)N[C@@H](CC(=O)O)C(=O)N2CCC[C@H]2C(=O)N[C@@H](CCCNC(=N)N)C(=O)CCl)cc1 [3AA, tosyl-DPR-CK] (Tos-Asp-Pro-Arg-CH2Cl) | 1 | FAILED | inhibition of cell proliferation (CNS-1 glioma cells [4]; 1 nM): significant inhibition of cell proliferation; inhibition of cell proliferation (CNS-1 glioma cells [4]; 10 nM): higher inhibition; effect on coagulation, overall (blood coagulation): significantly more deleterious effects on coagulation; Fxa (Factor Xa; 1 μM): 0.21 |
| < 10 nM | 109 | 3 | 20 | 9.15 | 13.8 s | 4 | 17.8 s | > 80 s | 12.1 s | 11.5 s | 4 | 14.5 s | 30.1 s | 30.5 s | 4 | 63.9 s | Cc1ccc(S(=O)(=O)N[C@H](C(=O)N[C@@H](CC(C)C)C(=O)N[C@@H](CC(=O)O)C(=O)N2CCC[C@H]2C(=O)N[C@@H](CCCNC(=N)N)C(=O)CCl)[C@@H](C)O)cc1 [5AA, tosyl-TLDPR-CK] (Tos-TLDPR-CH2Cl) | 4 | 0.13 | sciatic nerve conduction velocity relative to sham treated mice [7]: followed a similar trend |
|  |  |  |  |  |  |  |  |  |  |  |  |  |  |  |  |  | CC(C)c1ccc(Cn2ccc3c4c(N)nc(NC5CC5)nc4ccc32)cc1.Cl.Cl [SCH79797, N3-Cyclopropyl-7-[[4-(1-methylethyl)phenyl]methyl]-7H-pyrrolo[3,2-f]quinazoline-1,3-diamine dihydrochloride, reference compound] |  |  | inhibition at 1 µM (CNS-1 glioma cells [4]; Rattus norvegicus, Glioma cell, 1 μM, alone): 25%; proliferation (C6 glioma cells [8]): inhibited proliferation in a dose-dependent manner |
